Source: patent US11339171B2, “MDM2 inhibitors” (Gan & Lee Pharmaceuticals, priority 2017, dated 2022)
Several values for one entry are separate records, joined by “and”; a condition that tells them apart may be missing. Equal entries are not always repeated. Where two headings read alike, the source gives them in different places.

What was measured:
MDM2 = molecular target: T1, MDM2 (Homo sapiens, UniProt Q00987); experiment: Inhibition test of MDM2-P53 (GST-MDM2, Biotin-P53, Anti-GST-Tb, SA-XL665); type: binding
T1 construct: made in house
T1 sequence (Q00987 whole entry): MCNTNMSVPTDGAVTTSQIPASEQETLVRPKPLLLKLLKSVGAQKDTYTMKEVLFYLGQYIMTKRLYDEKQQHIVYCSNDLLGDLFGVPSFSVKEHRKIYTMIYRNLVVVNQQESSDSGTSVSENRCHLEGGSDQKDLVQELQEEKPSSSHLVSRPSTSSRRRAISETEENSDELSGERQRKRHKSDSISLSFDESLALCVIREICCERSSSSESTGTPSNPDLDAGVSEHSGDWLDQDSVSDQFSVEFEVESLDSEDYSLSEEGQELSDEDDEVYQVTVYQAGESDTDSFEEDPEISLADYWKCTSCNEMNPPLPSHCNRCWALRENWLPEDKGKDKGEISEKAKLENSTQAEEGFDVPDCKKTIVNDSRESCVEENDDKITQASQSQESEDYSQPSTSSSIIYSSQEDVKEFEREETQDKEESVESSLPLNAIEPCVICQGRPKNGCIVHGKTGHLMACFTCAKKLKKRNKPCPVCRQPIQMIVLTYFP
How it was run: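 Compounds, serially diluted 5-fold (twelve concentrations), were shaken for 90 min at 25° C with a mix of GST-MDM2 (4 nM final), Biotin-P53, anti-GST-Tb and SA-XL665. Buffer: 1×PBS, 0.1% BSA, 5 mM DTT, 1 mM AEBSF; signal read on a microplate reader.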

[1] = Pharmacokinetics in ICR mice after intravenous and intragastric administration; type: in vivo; settings: for F*: PO 5 mg/kg vs IV 2 mg/kg; for MRT last: read-out: MRT(0-t); for MRT inf: read-out: MRT(0-∞); for Vd: read-out: Vz
How it was run: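 Single-dose mouse PK study: i.v. 2 mg/kg and intragastric 5 mg/kg to fasted male ICR mice, three animals per arm. Exposure and disposition parameters (Cmax, Tmax, AUC, t1/2, F, CL, Vz) came from LC-MS/MS plasma levels.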

[2] = test system: human osteosarcoma cell line SJSA-1; experiment: Inhibition of proliferation of human osteosarcoma cell line SJSA-1 (DAPI staining, In Cell Analyzer); settings: Homo sapiens, SJSA-1, 72 h, read-out: IC50 (nM), inhibitory activity on proliferation of human osteosarcoma cell line SJSA-1, SJSA-1, incubated 72 h
[3] = IV 2 mg/kg, ICR mice, individual animal, 2 mg/kg
[4] = PO 5 mg/kg, ICR mice, individual animal, 5 mg/kg
[5] = male, ICR, mouse, plasma, iv, 2 mg/kg, IV 2 mg/kg, ICR mice, Mean
[6] = male, ICR, mouse, plasma, iv, 2 mg/kg, IV 2 mg/kg, ICR mice, Mean, read-out: AUC(0-t)
[7] = male, ICR, mouse, plasma, iv, 2 mg/kg, IV 2 mg/kg, ICR mice, Mean, read-out: Cmax
[8] = male, ICR, mouse, plasma, iv, 2 mg/kg, IV 2 mg/kg, ICR mice, Mean, read-out: Tmax
[9] = male, ICR, mouse, plasma, iv, 2 mg/kg, IV 2 mg/kg, ICR mice, Mean, read-out: t1/2 (converted)
[10] = male, ICR, mouse, plasma, iv, 2 mg/kg, IV 2 mg/kg, ICR mice, individual animal
[11] = male, ICR, mouse, plasma, iv, 2 mg/kg, IV 2 mg/kg, ICR mice, individual animal, read-out: AUC(0-t)
[12] = male, ICR, mouse, plasma, iv, 2 mg/kg, IV 2 mg/kg, ICR mice, individual animal, read-out: Cmax
[13] = male, ICR, mouse, plasma, iv, 2 mg/kg, IV 2 mg/kg, ICR mice, individual animal, read-out: Tmax
[14] = male, ICR, mouse, plasma, iv, 2 mg/kg, IV 2 mg/kg, ICR mice, individual animal, read-out: t1/2 (converted)
[15] = male, ICR, mouse, plasma, po, 5 mg/kg, PO 5 mg/kg, ICR mice, Mean
[16] = male, ICR, mouse, plasma, po, 5 mg/kg, PO 5 mg/kg, ICR mice, Mean, read-out: AUC(0-t)
[17] = male, ICR, mouse, plasma, po, 5 mg/kg, PO 5 mg/kg, ICR mice, Mean, read-out: Cmax
[18] = male, ICR, mouse, plasma, po, 5 mg/kg, PO 5 mg/kg, ICR mice, Mean, read-out: Tmax
[19] = male, ICR, mouse, plasma, po, 5 mg/kg, PO 5 mg/kg, ICR mice, Mean, read-out: t1/2 (converted)
[20] = male, ICR, mouse, plasma, po, 5 mg/kg, PO 5 mg/kg, ICR mice, individual animal
[21] = male, ICR, mouse, plasma, po, 5 mg/kg, PO 5 mg/kg, ICR mice, individual animal, read-out: AUC(0-t)
[22] = male, ICR, mouse, plasma, po, 5 mg/kg, PO 5 mg/kg, ICR mice, individual animal, read-out: Cmax
[23] = male, ICR, mouse, plasma, po, 5 mg/kg, PO 5 mg/kg, ICR mice, individual animal, read-out: Tmax
[24] = male, ICR, mouse, plasma, po, 5 mg/kg, PO 5 mg/kg, ICR mice, individual animal, read-out: t1/2 (converted)
[25] = male, ICR, mouse, plasma, po, 5 mg/kg, oral intragastric administration 5 mg/kg, read-out: AUC0-t

COc1cc(OC)c(-c2nc3c(n2C(C)C)[C@@]2(C(=O)Nc4cc(Cl)ccc42)N(c2cc(Cl)ccc2C)C3=O)cn1 [Example S-11, (S)-6-chloro-5′-(5-chloro-2-methylphenyl)-2′-(4,6-dimethoxypyridin-3-yl)-3′-isopropyl-3′H-spiro[dihydroindole-3,4′-pyrrolo[3,4-d]imidazole]-2,6′(5′H)-dione]
IC50 (MDM2): 1.58 nM | AUC(0-t) [1, 3]: 3578.38 ng·h/mL and 4225.58 ng·h/mL | AUC(0-∞) [1, 3]: 3680.24 ng·h/mL and 4820.40 ng·h/mL | CL [1, 3]: 9.06 mL/min/kg and 6.92 mL/min/kg | Cmax [1, 3]: 1376.51 ng/mL and 1519.69 ng/mL | MRT(0-t) [1, 3]: 1.43 h and 1.81 h | MRT(0-∞) [1, 3]: 1.61 h and 2.70 h | Vz [1, 3]: 0.91 L/kg and 1.25 L/kg | t1/2 [1, 3]: 2.09 h | F* ([1]; ICR mice): 102.51% | AUC(0-t) [1, 4]: 8536.56 ng·h/mL and 11568.40 ng·h/mL | AUC(0-∞) [1, 4]: 8816.41 ng·h/mL and 11784.98 ng·h/mL | Cmax [1, 4]: 1573.02 ng/mL and 2144.69 ng/mL | MRT(0-t) [1, 4]: 2.87 h | MRT(0-∞) [1, 4]: 3.11 h and 3.05 h | Tmax [1, 4]: 120 min | t1/2 [1, 4]: 1.55 h and 1.33 h | AUC(0-inf) [1, 5]: 3920 ng·h/mL | clearance [1, 5]: 8.74 mL/min/kg | AUC(0-t) [1, 6]: 3660 ng·h/mL | Cmax [1, 7]: 1400 ng/mL | MRT last [1, 5]: 1.55 h | MRT inf [1, 5]: 1.95 h | Tmax [1, 8]: 30 min | Vd [1, 5]: 1.06 L/kg | half-life [1, 9]: 87.6 min | AUC(0-inf) [1, 10]: 3250 ng·h/mL | clearance [1, 10]: 10.3 mL/min/kg | AUC(0-t) [1, 11]: 3170 ng·h/mL | Cmax [1, 12]: 1300 ng/mL | MRT last [1, 10]: 1.4 h | MRT inf [1, 10]: 1.55 h | Tmax [1, 13]: 30 min | Vd [1, 10]: 1.02 L/kg | half-life [1, 14]: 69 min | AUC(0-inf) [1, 15]: 9790 ng·h/mL | AUC(0-t) [1, 16]: 9370 ng·h/mL | Cmax [1, 17]: 1790 ng/mL | MRT last [1, 15]: 2.92 h | MRT inf [1, 15]: 3.27 h | Tmax [1, 18]: 79.8 min | half-life [1, 19]: 101 min | AUC(0-inf) [1, 20]: 8770 ng·h/mL | AUC(0-t) [1, 21]: 8020 ng·h/mL | Cmax [1, 22]: 1650 ng/mL | MRT last [1, 20]: 2.96 h | MRT inf [1, 20]: 3.66 h | Tmax [1, 23]: 60 min | half-life [1, 24]: 131 min | AUC(0-t) [1, 25]: 9370 ng·h/mL | half-life ([1]; male, ICR, mouse, plasma, po, 5 mg/kg, oral intragastric administration 5 mg/kg, read-out: half-life (converted)): 101 min | bioavailability ([1]; male, ICR, mouse, plasma, oral intragastric administration 5 mg/kg, read-out: bioavailability): 103% | IC50 [2]: 1.67 nM

COc1cc(N(C)C)ccc1-c1nc2c(n1C(C)C)[C@@]1(C(=O)Nc3cc(Cl)ccc31)N(c1cc(Cl)ccc1C)C2=O [Example S-23, (S)-6-chloro-5′-(5-chloro-2-methylphenyl)-2′-(4-(dimethylamino)-2-methoxyphenyl)-3′-isopropyl-3′H-spiro[dihydroindole-3,4′-pyrrolo[3,4-d]imidazole]-2,6′(5′H)-dione]
IC50 (MDM2): 2.8 nM | AUC(0-t) [1, 3]: 6172.76 ng·h/mL and 6625.30 ng·h/mL | AUC(0-∞) [1, 3]: 6427.71 ng·h/mL and 7084.65 ng·h/mL | CL [1, 3]: 5.19 mL/min/kg and 4.71 mL/min/kg | Cmax [1, 3]: 3040.32 ng/mL and 3640.21 ng/mL | MRT(0-t) [1, 3]: 1.50 h and 1.55 h | MRT(0-∞) [1, 3]: 1.75 h and 1.99 h | Vz [1, 3]: 0.60 L/kg and 0.64 L/kg | t1/2 [1, 3]: 1.33 h and 1.57 h | F* ([1]; ICR mice): 43.18% | AUC(0-t) [1, 4]: 9122.66 ng·h/mL and 7675.41 ng·h/mL | AUC(0-∞) [1, 4]: 9163.57 ng·h/mL and 7881.03 ng·h/mL | Cmax [1, 4]: 3316.65 ng/mL and 2730.39 ng/mL | MRT(0-t) [1, 4]: 2.02 h and 2.08 h | MRT(0-∞) [1, 4]: 2.05 h and 2.29 h | Tmax [1, 4]: 30 min | t1/2 [1, 4]: 0.98 h and 1.52 h | AUC(0-inf) [1, 5]: 8010 ng·h/mL | clearance [1, 5]: 4.35 mL/min/kg | AUC(0-t) [1, 6]: 7420 ng·h/mL | Cmax [1, 7]: 3490 ng/mL | MRT last [1, 5]: 1.61 h | MRT inf [1, 5]: 2.07 h | Tmax [1, 8]: 4.98 min | Vd [1, 5]: 0.58 L/kg | half-life [1, 9]: 95.4 min | AUC(0-inf) [1, 10]: 10500 ng·h/mL | clearance [1, 10]: 3.17 mL/min/kg | AUC(0-t) [1, 11]: 9460 ng·h/mL | Cmax [1, 12]: 3780 ng/mL | MRT last [1, 10]: 1.78 h | MRT inf [1, 10]: 2.46 h | Tmax [1, 13]: 4.8 min | Vd [1, 10]: 0.51 L/kg | half-life [1, 14]: 112 min | AUC(0-inf) [1, 15]: 8120 ng·h/mL | AUC(0-t) [1, 16]: 8010 ng·h/mL | Cmax [1, 17]: 2700 ng/mL | MRT last [1, 15]: 2.15 h | MRT inf [1, 15]: 2.26 h | Tmax [1, 18]: 49.8 min | half-life [1, 19]: 73.2 min | AUC(0-inf) [1, 20]: 7320 ng·h/mL | AUC(0-t) [1, 21]: 7240 ng·h/mL | Cmax [1, 22]: 2050 ng/mL | MRT last [1, 20]: 2.35 h | MRT inf [1, 20]: 2.43 h | Tmax [1, 23]: 60 min | half-life [1, 24]: 69 min | AUC(0-t) [1, 25]: 8010 ng·h/mL | IC50 [2]: 1.24 nM

COc1ccc(-c2nc3c(n2C(C)C)[C@@]2(C(=O)Nc4cc(Cl)ccc42)N(c2cc(Cl)ccc2C)C3=O)c(OC)c1 [Example S-9, (S)-6-chloro-5′-(5-chloro-2-methylphenyl)-2′-(2,4-dimethoxyphenyl)-3′-isopropyl-3′H-spiro[dihydroindole-3,4′-pyrrolo[3,4-d]imidazole]-2,6′(5′H)-dione]
IC50 (MDM2): 2.38 nM | AUC(0-t) [1, 3]: 4107.04 ng·h/mL and 3334.44 ng·h/mL | AUC(0-∞) [1, 3]: 4214.93 ng·h/mL and 3452.37 ng·h/mL | CL [1, 3]: 7.9083 mL/min/kg and 9.6552 mL/min/kg | Cmax [1, 3]: 1643.99 ng/mL and 1403.26 ng/mL | MRT(0-t) [1, 3]: 1.47 h | MRT(0-∞) [1, 3]: 1.63 h and 1.68 h | Vz [1, 3]: 0.79338 L/kg and 1.05516 L/kg | t1/2 [1, 3]: 1.16 h and 1.26 h | F* ([1]; ICR mice): 79.30% | AUC(0-t) [1, 4]: 8692.39 ng·h/mL and 6976.33 ng·h/mL | AUC(0-∞) [1, 4]: 8911.44 ng·h/mL and 7048.92 ng·h/mL | Cmax [1, 4]: 2009.05 ng/mL and 1914.07 ng/mL | MRT(0-t) [1, 4]: 2.60 h and 2.68 h | MRT(0-∞) [1, 4]: 2.78 h and 2.75 h | Tmax [1, 4]: 60 min | t1/2 [1, 4]: 1.44 h and 1.22 h | AUC(0-inf) [1, 5]: 3830 ng·h/mL | clearance [1, 5]: 8.76 mL/min/kg | AUC(0-t) [1, 6]: 3700 ng·h/mL | Cmax [1, 7]: 1440 ng/mL | MRT last [1, 5]: 1.51 h | MRT inf [1, 5]: 1.73 h | Tmax [1, 8]: 4.98 min | Vd [1, 5]: 0.968 L/kg | half-life [1, 9]: 76.2 min | AUC(0-inf) [1, 10]: 3830 ng·h/mL | clearance [1, 10]: 8.7 mL/min/kg | AUC(0-t) [1, 11]: 3650 ng·h/mL | Cmax [1, 12]: 1270 ng/mL | MRT last [1, 10]: 1.58 h | MRT inf [1, 10]: 1.88 h | Tmax [1, 13]: 4.8 min | Vd [1, 10]: 1.05 L/kg | half-life [1, 14]: 84 min | AUC(0-inf) [1, 15]: 7510 ng·h/mL | AUC(0-t) [1, 16]: 7330 ng·h/mL | Cmax [1, 17]: 1760 ng/mL | MRT last [1, 15]: 2.64 h | MRT inf [1, 15]: 2.82 h | Tmax [1, 18]: 79.8 min | half-life [1, 19]: 84.6 min | AUC(0-inf) [1, 20]: 6560 ng·h/mL | AUC(0-t) [1, 21]: 6320 ng·h/mL | Cmax [1, 22]: 1370 ng/mL | MRT last [1, 20]: 2.65 h | MRT inf [1, 20]: 2.92 h | Tmax [1, 23]: 120 min | half-life [1, 24]: 94.2 min | AUC(0-t) [1, 25]: 7330 ng·h/mL | IC50 [2]: 7.39 nM
